Test results: patent US20260085082A1, “KDM1A INHIBITORS FOR THE TREATMENT OF DISEASE” (Imago Biosciences, Inc., priority 2022, published 2026)
Read-outs that look alike come from different tables or passages of the source.

Assays:
LSD1 = LSD1 (Homo sapiens, UniProt O60341); assay: LSD1 10-dose IC50 fluorescence coupling enzyme assay (HRP/Amplex Red, resorufin); format: biochemical; settings: 10 M histone H3(1-21)K4me2 peptide substrate; 3-fold serial dilution in duplicate starting at 100 μM
Protocol: Compounds were tested in a 10-dose IC50 mode fluorescence coupling enzyme assay with 3-fold serial dilution in duplicate starting at 100 μM. The production of FAD-dependent H2O2 as a result of demethylase activity of LSD1 on […] histone H3(1-21)K4me2 peptide substrate was measured by coupling with HRP and Amplex Red to yield resorufin (fluorescence measured at Ex/Em=535/590 nm on EnVision, Perkin Elmer).

MV4;11 cells = assay: Cell Titer-Glo Luminescent Cell Viability Assay, cell growth inhibition against MV4;11 cells; format: cell-based; settings: Homo sapiens
Procedure, shortened: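 MV4;11 cells seeded at 3750/well, exposed to a 10-point 4-fold dilution series (0–50 μM); on Day 5 cells were split into fresh compound and media and grown to Day 10. Viability by CellTiter-Glo ATP luminescence at Day 5 and Day 10; IC50 from dose curves.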

[1] = MV4-11, 120 h, MV4;11 cells, Day 5, 10-point dose curve 0 to 50 μM, read-out: Cell Titer Glo IC50 (5 d)
[2] = MV4-11, MV4;11 cells, Day 10 (re-seeded at Day 5 with fresh compound), 10-point dose curve 0 to 50 μM, read-out: Cell Titer Glo IC50 (10 d)

Row | SMILES | IC50 (LSD1) [nM] | IC50 (MV4;11 cells; [1]) [nM] | IC50 (MV4;11 cells; [2]) [nM]
1 | Cc1ccc(-n2nc(C(=O)N3CCC[C@@H](N)C3)cc2-c2ccc(C#N)c(F)c2)cc1 [Example 11, (R)-4-(3-(3-Aminopiperidine-1-carbonyl)-1-(p-tolyl)-1H-pyrazol-5-yl)-2-fluorobenzonitrile] | < 500 | < 500 | < 500
2 | COc1ccc(-n2nc(C(=O)NC3CCCC(N)C3)cc2-c2ccc(C#N)c(F)c2)cc1 (stereo not drawn) [Example 20, N-(3-aminocyclohexyl)-5-(4-cyano-3-fluorophenyl)-1-(4-methoxyphenyl)-1H-pyrazole-3-carboxamide 2,2,2-trifluoroacetate] | 1000 to 10000 | 1000 to 10000 | 
3 | COc1ccc(-n2nc(C(=O)N[C@H]3CCC[C@@H](N)C3)cc2-c2ccc(C#N)c(F)c2)cc1 [Example 22, N-((1S,3R)-3-aminocyclohexyl)-5-(4-cyano-3-fluorophenyl)-1-(4-methoxyphenyl)-1H-pyrazole-3-carboxamide] | 500 to 1000 | 1000 to 10000 | 
4 | Cc1cc(CCn2nc(C(=O)N3CCC[C@@H](N)C3)cc2-c2ccc(C#N)c(F)c2)on1 [Example 38, (R)-4-(3-(3-aminopiperidine-1-carbonyl)-1-(2-(3-methylisoxazol-5-yl)ethyl)-1H-pyrazol-5-yl)-2-fluorobenzonitrile] | > 10000 | 1000 to 10000 | 
5 | COc1ccc(-n2nc(C(=O)N3CCC[C@H](N)C3)cc2-c2ccc(C#N)c(F)c2)cc1 [Example 19, (S)-4-(3-(3-Aminopiperidine-1-carbonyl)-1-(4-methoxyphenyl)-1H-pyrazol-5-yl)-2-fluorobenzonitrile] | < 500 | < 500 | < 500
6 | Cn1cc2cc(-n3nc(C(=O)N4CCC[C@H](N)C4)cc3-c3ccc(C#N)c(F)c3)ccc2n1 [Example 44, (S)-4-(3-(3-aminopiperidine-1-carbonyl)-1-(2-methyl-2H-indazol-5-yl)-1H-pyrazol-5-yl)-2-fluorobenzonitrile 2,2,2-trifluoroacetate] | < 500 | < 500 | < 500
7 | Cc1ccc(-n2nc(C(=O)N3CCC(CN)CC3)cc2-c2ccc(C#N)c(F)c2)cc1 [Example 8, 4-(3-(4-(Aminomethyl)piperidine-1-carbonyl)-1-(p-tolyl)-1H-pyrazol-5-yl)-2-fluorobenzonitrile] | < 500 | > 10000 | 
8 | COc1ccc(-n2nc(C(=O)N3CCCC(N)C3)cc2-c2ccc(C#N)c(F)c2)cc1F (stereo not drawn) [Example 35, 4-(3-(3-Aminopiperidine-1-carbonyl)-1-(3-fluoro-4-methoxyphenyl)-1H-pyrazol-5-yl)-2-fluorobenzonitrile] | < 500 | < 500 | 
9 | N#Cc1ccc(-c2cc(C(=O)N3CCC[C@@H](N)C3)nn2-c2ccc(-c3ccc4c(c3)OCCO4)cc2)cc1F [Example 85, (R)-4-(3-(3-aminopiperidine-1-carbonyl)-1-(4-(2,3-dihydrobenzo[b][1,4]dioxin-6-yl)phenyl)-1H-pyrazol-5-yl)-2-fluorobenzonitrile 2,2,2-trifluoroacetate] | < 500 |  | < 500
